{"source": "patent US11472799B2", "about": "“Serine threonine kinase (AKT) degradation / disruption compounds and methods of use” (Icahn School of Medicine at Mount Sinai, priority 2018, dated 2022)", "key": {"[1]": {"system": "colon cancer xenograft with RAS/RAF activation albeit with PIK3CA mutation", "settings": "alone; xenograft with RAS/RAF activation and PIK3CA mutation; cited from earlier work"}, "[2]": {"settings": "phase I clinical trial (Saura et al., 2017); cited from earlier work"}, "[3]": {"system": "AKT", "test": "Western blot of AKT protein levels in U87MG cells", "type": "cell-based", "settings": "0.3 μM, 1 μM, 3 μM, or 10 μM for 24 h", "description": "(§1) Cells were lysed in 2× sample buffer (125 mM Tris-HCl at pH 6.8, 10% βME, 2% SDS, 20% glycerol, 0.05% Bromophenol Blue, 8 M urea). Protein lysates were loaded into 4-12% Bis-Tris gels and resolved by electrophoresis. Samples were then blotted on PVDF membrane (Millipore IPVH00010) using the wet transfer technique (Invitrogen). Membranes were blocked in 5% milk-TBST for 1 hour, washed in TBST for 10 min, and incubated in primary antibody in 5% milk-TBST or 5% BSA-TBST at 4° C. for 16 h. Membranes were rinsed (3×6 min) in TBST and incubated in horseradish peroxidase-conjugated secondary antibodies in 5% milk-TBST for 1 hour and rinsed again in TBST (3×6 min). Membranes were visualized using the chemiluminescence system (Thermo 34080, 37075) on autoradiography film (Denville E3018). Primary Antibodies: R-actin (Sigma A5316), p-AKT (Ser473 CST-9721), total AKT (CST-9272), p-S6 (Ser240/244, CST-5364), p-PRAS40 (Thr246, CST-2997). Secondary Antibodies: Mouse (Thermo 31432), Rabbit (Thermo 31460)."}, "[4]": {"system": "AKT", "test": "Western blot of AKT protein levels and downstream signaling in BT474 cells", "type": "cell-based, human", "procedure,_shortened": "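Lysates were immunoblotted with chemiluminescent detection for p-AKT Ser473, total AKT, p-S6 Ser240/244 and p-PRAS40 Thr246, using actin as loading control.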"}, "[5]": {"system": "AKT", "test": "Western blot of AKT protein levels in PC-3 cells", "type": "cell-based, human", "settings": "0.3 μM, 1 μM, 3 μM, or 10 μM for 24 h (FIG. 4B)", "description": "PC-3, U87MG, HCC1143, MDA-MB-231, MDA-MB-468, BT474 and MCF-7 cell lines were purchased from ATCC. Cell lines were regularly tested in the lab for mycoplasma. All cells were cultured at 37° C. and 5% CO2. PC-3, U87MG, MDA-MB-231, MCF-7 and BT474 cells were cultured in 1×DMEM (Corning, 10-013-CV) with 10% fetal bovine serum (Atlanta Biologicals S11150) and 1× Penicillin/Streptomycin. HCC1143 cells were cultured in RPMI (Corning, 10-040-CV) medium with 10% fetal bovine serum (Atlanta Biologicals S11150) and 1× Penicillin/Streptomycin. Cells were split using 0.05% or 0.25% trypsin (Corning 25-051-Cl or 25-053-Cl, respectively) before they reached full confluence and media was changed every 3-4 days. Cells were treated with compounds individually at different concentrations for 24 hrs. Cells were treated with DMSO, VHL, or PML alone as controls.\nas §1"}, "[6]": {"system": "AKT", "test": "Western blot of AKT protein levels in MDA-MB-468 cells", "type": "cell-based", "settings": "0.3 μM, 1 μM, 3 μM, or 10 μM for 24 h", "description": "as §1"}, "[7]": {"system": "PC-3 cells", "test": "Colony formation (Crystal Violet) in PC-3 cells", "type": "cell-based, human", "settings": "0.1-10 μM for 2 weeks (FIG. 8)", "description": "(§2) PC-3, MDA-MB-468, HCC1143, and MDA-MB-231 cells were treated with DMSO, AZD5363 or XF050-21 at 0.1 μM, 0.3 μM, 1 μM, 3 μM, or 10 μM for 2 weeks.\n(§3) Cells were cultured for 12-17 days in the presence of different compounds. Media with compound was replenished every two days. At the end of the experiment, media was aspirated and viable cells were stained with 0.5% crystal violet dye."}, "[8]": {"system": "MDA-MB-468 cells", "test": "Colony formation (Crystal Violet) in MDA-MB-468 cells", "type": "cell-based", "settings": "0.1-10 μM for 2 weeks (FIG. 8)", "description": "as §2, §3"}, "[9]": {"system": "HCC1143 cells", "test": "Colony formation (Crystal Violet) in HCC1143 cells", "type": "cell-based", "settings": "0.1-10 μM for 2 weeks (FIG. 8)", "description": "as §2, §3"}, "[10]": {"system": "AKT", "test": "Combination of AKT degrader and mTOR inhibitor, Western blot in BT474 cells", "type": "cell-based, human", "settings": "24 h, combined with an mTOR inhibitor (Torin1 or Rapamycin)", "description": "as §1"}, "[11]": {"system": "MDA-MB-231 cells", "test": "Colony formation (Crystal Violet) in MDA-MB-231 cells", "type": "cell-based", "settings": "0.1-10 μM for 2 weeks (FIG. 8)", "description": "as §2, §3"}, "[12]": {"system": "MDA-MB-468 cells", "test": "Cell proliferation (IncuCyte live cell imaging) in MDA-MB-468 cells", "type": "cell-based", "settings": "MDA-MB-468 cells (FIG. 7)", "description": "(§4) 1-3×10^3 PC-3 or MDA-MB-468 cells were seeded in 96-well plates in triplicates and treated at the indicated compound concentrations. Cells were monitored using the IncuCyte® live cell imaging system (Essen Bioscience™, Ann Arbor, Mich.) which was placed in a cell culture incubator operated at 37° C. and 5% CO2. Cell confluence was determined using calculations derived from phase-contrast images. The concentration for 50% of maximal inhibition of cell proliferation (GI50) values were determined by fitting to a standard four-parameter logistic using GraphPad Prism® v5.\n(§5) Experiments were carried out in 96-well plates in triplicates. A total of 1-3×10^3 cells per well were grown in the presence of 1 μM of AZD5363 (Selleckchem), 1 μM of selected degrader compounds. Cells were then monitored for 3-4 days using the IncuCyte live cell imaging system (Essen BioScience, Ann Arbor, Mich., USA), which was placed in a cell culture incubator operated at 37° C. and 5% CO2. Cell confluence was determined using calculations derived from phase-contrast images. For measurement of cell death DRAQ7 (Cell Signaling #7406) at 1.5 μM was included in the medium and apoptotic red counts were measured in IncuCyte™ FLR automated incubator microscope."}, "[13]": {"test": "Mouse PK study, plasma exposure", "type": "in vivo, Swiss Albino mice", "description": "Standard PK studies were conducted using male Swiss Albino mice. A single 75 mg/kg intraperitoneal (IP) injection of XF050-21 was evaluated. Plasma concentrations of XF050-21 reported at each of the six time points (30 min, 1 h, 2 h, 4 h, 8 h, and 12 h post dosing) are the average values from 3 test animals."}, "[14]": {"system": "AKT", "test": "Time course Western blot of AKT degradation in BT474 cells", "type": "cell-based, human", "description": "as §1"}, "[15]": {"system": "AKT", "test": "Rescue of XF050-21 induced AKT degradation by pretreatment in BT474 cells", "type": "cell-based, human", "description": "BT474 Cells were pre-treated with DMSO, VHL-1 (1 mM), MLN4924 (1 μM), MG-132 (20 μM) or AZD5363 (1 μM) for 2 h, before being treated with the 1 μM XF050-21 compounds for 24 h.\nas §1"}, "[16]": {"system": "PC-3 cells", "test": "Cell proliferation (IncuCyte live cell imaging) in PC-3 cells", "type": "cell-based, human", "settings": "PC-3 cells (FIG. 7)", "description": "as §4, §5"}, "[17]": {"system": "AKT", "test": "Time course Western blot of AKT degradation in PC-3 cells", "type": "cell-based, human", "settings": "PC3 cells, 1 μM", "description": "BT474 cells and PC-3 cells were treated with DMSO or the indicated compounds at a fixed concentration of 1 μM for 1, 2, 4, 8, 12, or 24 h. […] The maximum degradation of AKT and inhibition of downstream signaling were observed after 12 h of treatment in PC-3 cells (FIG. 5B).\nas §1"}}, "note": "“Also recorded” adds a separate entry of the source."}
{"smiles": "CC(C)NC[C@@H](C(=O)N1CCN(c2ncnc3c2[C@H](C)C[C@H]3O)CC1)c1ccc(Cl)cc1", "note": "[GDC0068]", "values": [{"measurement": "efficacy in colon cancer xenograft", "setting": "[1]", "result": "not very effective"}, {"measurement": "objective tumor shrinkage", "setting": "[2]", "result": "failed to result in significant objective tumor shrinkage"}]}
{"smiles": "NC1(C(=O)N[C@@H](CCO)c2ccc(Cl)cc2)CCN(c2ncnc3[nH]ccc23)CC1", "note": "[AZD5363, 4-amino-N-[(1S)-1-(4-chlorophenyl)-3-hydroxypropyl]-1-(7H-pyrrolo[2,3-d]pyrimidin-4-yl)piperidine-4-carboxamide, reference compound]", "values": [{"measurement": "AKT protein levels", "setting": "[3]", "result": "no effect"}, {"measurement": "pAKT levels", "setting": "[3]", "result": "increased"}, {"measurement": "AKT protein levels", "setting": "[4]; 1 μM, 5 μM, or 10 μM for 24 h", "result": "no effect"}, {"measurement": "pAKT levels", "setting": "[4]; 1 μM, 5 μM, or 10 μM for 24 h", "result": "increased"}, {"measurement": "AKT protein levels", "setting": "[4]; 0.01-1 μM for 24 h (FIG. 4A)", "result": "no effect"}, {"measurement": "pAKT levels", "setting": "[4]; 0.01-1 μM for 24 h (FIG. 4A)", "result": "increased"}, {"measurement": "AKT protein levels", "setting": "[5]", "result": "no effect"}, {"measurement": "pAKT levels", "setting": "[5]", "result": "increased"}, {"measurement": "AKT protein levels", "setting": "[6]", "result": "no effect"}, {"measurement": "pAKT levels", "setting": "[6]", "result": "increased"}]}
{"smiles": "Cc1ncsc1-c1ccc(CNC(=O)[C@@H]2C[C@@H](O)CN2C(=O)[C@@H](NC(=O)CCCCCCCCCC(=O)N2CCN(CC[C@H](NC(=O)C3(N)CCN(c4ncnc5[nH]ccc45)CC3)c3ccc(Cl)cc3)CC2)C(C)(C)C)cc1", "note": "[XF050-21, 4-amino-N-((S)-1-(4-chlorophenyl)-3-(4-(11-(((S)-1-((2S,4R)-4-hydroxy-2-((4-(4-methylthiazol-5-yl)benzyl)carbamoyl)pyrrolidin-1-yl)-3,3-dimethyl-1-oxobutan-2-yl)amino)-11-oxoundecanoyl)piperazin-1-yl)propyl)-1-(7H-pyrrolo[2,3-d]pyrimidin-4-yl)piperidine-4-carboxamide]", "values": [{"measurement": "colony formation inhibition compared with AZD5363", "setting": "[7]", "result": "more effective in inhibiting cancer cell proliferation than AZD5363; also recorded: better colony formation inhibition than AZD5363"}, {"measurement": "colony formation inhibition compared with AZD5363", "setting": "[8]", "result": "more effective in inhibiting cancer cell proliferation than AZD5363; also recorded: better colony formation inhibition than AZD5363"}, {"measurement": "AKT protein levels", "setting": "[3]", "result": "significantly reduced"}, {"measurement": "colony formation inhibition compared with AZD5363", "setting": "[9]", "result": "more effective in inhibiting cancer cell proliferation than AZD5363; also recorded: better colony formation inhibition than AZD5363"}, {"measurement": "suppression of AKT protein level and AKT activity", "setting": "[4]; Western blot (FIGS. 1, 3, 4)", "result": "effective in suppressing both AKT protein level and AKT activity"}, {"measurement": "AKT protein levels and downstream signaling under combination treatment", "setting": "[10]", "result": "reduced AKT protein levels and inhibited downstream signaling; also recorded: significantly reduced the AKT protein levels and AKT downstream signaling"}, {"measurement": "AKT protein levels", "setting": "[5]", "result": "significantly reduced"}, {"measurement": "colony formation inhibition compared with AZD5363", "setting": "[11]", "result": "more effective in inhibiting cancer cell proliferation than AZD5363; also recorded: better colony formation inhibition than AZD5363"}, {"measurement": "AKT protein levels", "setting": "[6]", "result": "significantly reduced"}, {"measurement": "cell proliferation inhibition compared with AZD5363", "setting": "[12]", "result": "more effective than AZD5363; also recorded: better cell proliferation inhibition activity than AZD5363"}, {"measurement": "clinical observations during PK study", "setting": "[13]; male Swiss Albino mice, single 75 mg/kg IP", "result": "no abnormal clinical observations noted"}, {"measurement": "bioavailability in mice", "setting": "[13]; single 75 mg/kg IP injection, plasma", "result": "Bioavailable"}, {"measurement": "time point for the most significant AKT degradation", "setting": "[14]; BT474 cells (FIGS. 2 and 5)", "result": 24, "unit": "h"}, {"measurement": "time-dependent reduction of AKT, p-AKT, P-PRAS40 (T246), and P-S6 (S240/244) protein levels", "setting": "[14]; BT474 cells, 1 μM", "result": "time-dependently reduce"}, {"measurement": "mechanism of induced AKT protein degradation", "setting": "[15]", "result": "mediated by hijacking the E3 ubiquitin ligase VHL"}, {"measurement": "rescue of AKT degradation by pretreatment", "setting": "[15]; 2 h pretreatment with VHL-1, MLN4924, MG-132 or AZD5363, then 1 μM XF050-21 for 24 h", "result": "can be rescued by VHL-1, MLN4924, MG-132 or AZD5363 pretreatment; also recorded: can be blocked by pretreatment of VHL-1, MLN4924, MG132, and AZD5363; also recorded: can be rescued by pretreatment of the cells with VHL-1, MLN4924, MG132 and AZD5363"}, {"measurement": "cell proliferation inhibition compared with AZD5363", "setting": "[16]", "result": "more effective than AZD5363; also recorded: better cell proliferation inhibition activity than AZD5363"}, {"measurement": "time-dependent reduction of AKT, p-AKT, P-PRAS40 (T246), and P-S6 (S240/244) protein levels", "setting": "[17]", "result": "time-dependently reduces"}]}
